According to patent US20250144187A1, “COMBINATION OF HYDROLASES AND ANTI-MICROORGANISM DRUGS AND USES THEREOF” (CENTRE FOR EYE AND VISION RESEARCH LIMITED, priority 2023, published 2025):

Columns and labels:
MRSA-infected skin wound = test: Rat skin infection model, tedizolid phosphate/lysozyme; assay type: in vivo, Sprague Dawley (SD) rats; conditions: combination therapy
Description: 19) Skin infection model. […] Except 3 rats in uninfected group, other 12 rats were infected by 5×10^11 CFUs of mid-log phase MRSA from our own collection. Briefly, all rats were firstly pec-depilated by using 10% Na2S to get an uncovered back area of 4 cm×4 cm before 24 hours for the anesthetization on rats. Then, the skin of anesthetized rat was removed until fascial region under sterile condition, followed by spraying 5.0×10^11 CFUs of mid-log phase MRSA on wound (3 cm×3 cm). Bacterial suspensions were collected by below-described method [Zhang. […] Specifically, mid-log phase MRSA was collected by centrifugation at 4500 g for 15 minutes, washed with PBS for 3 limes and re-suspended in cold PBS to get bacterial suspension with an initial density of about 4.0×10^11 CFU/ml according to pre-experiment. Next, 1.25 ml of bacterial suspension was sprayed onto wound. […] All sterile medical gauzes were 0.2 g/cm^2, and further covered by two layers of sterile gauzes and fixed by sterile tapes. Next, rats were monitored until they were fully awake, and then returned to their cages. After 24 hours infection, these sterile medical gauzes were replaced with new sterile medical gauzes soaking different drugs, i.e., normal saline, tedizolid phosphate (0.167 mg/kg) or lysozyme (0.833 mg/kg), or their combination (0.167 mg tedizolid phosphates/kg rat+0.833 mg lysosyme/kg rat), respectively. Meanwhile, rats in uninfected group were treated with new sterile medical gauzes soaking normal saline. All steps were repeated at 48-, 72-, 96-, 120- and 144-hr post-inoculation. At 168 hours post-inoculation, all rats were sacrificed to collect their wounds. These collected tissues were fixed in 10% formalin for at least 24 hours and embedded in paraffin. Next, about 4-μm sections were analyzed by using the hematoxylin and eosin (H-E) staining kit. […] Meanwhile, this homogenate was also 10-fold gradient-diluted in 96-well plate to figure out the bacterial load in infected wound according to quantitative grown colony after overnight culture. […]

MRSA = test: Mutation frequency and prevention concentration analysis, tedizolid phosphate/lysozyme
MRSE [1] = test: as above
MRSE [2] = test: High-throughput screening of 4989 compounds with human lysozyme; assay type: cell-based, Staphylococcus epidermis; conditions: for MRSE Inhibition ratio (%): compound 2.5 μM + 1 mg/ml lysozyme relative to compound only

| Compound | decrease in the level of IL-6 (MRSA-infected skin wound; 7 days) | decrease in the level of ROS (MRSA-infected skin wound; 7 days) [%] | reduction of bacterial load in the wound (MRSA-infected skin wound; 168 hours post-inoculation) | mutation frequencies (MRSA; combination with lysozyme) | prevention concentrations of tedizolid phosphate (MRSA; combination with lysozyme) [µg/mL] | mutation frequencies (MRSA; without combination therapy) | prevention concentrations of tedizolid phosphate (MRSA; without lysozyme) [µg/mL] | mutation frequencies (MRSE [1]; combination with lysozyme) | prevention concentrations of tedizolid phosphate (MRSE [1]; combination with lysozyme) [µg/mL] | mutation frequencies (MRSE [1]; without combination therapy) | prevention concentrations of tedizolid phosphate (MRSE [1]; without lysozyme) [µg/mL] | MRSE Combination (MRSE [2]; OD600 at 24-hour, compound 2.5 μM + 1 mg/ml lysozyme) | MRSE Drug only (MRSE [2]; OD600 at 24-hour, compound 2.5 μM without lysozyme) | MRSE Inhibition ratio (%) (MRSE [2]) | MRSE Inhibition ratio (%) (MRSE [2]; listed as Ce ? dinir) |
| --- | --- | --- | --- | --- | --- | --- | --- | --- | --- | --- | --- | --- | --- | --- | --- |
| Cn1nnc(-c2ccc(-c3ccc(N4C[C@H](COP(=O)(O)O)OC4=O)cc3F)cn2)n1 [tedizolid phosphate, Tedizolid Phosphate] | more than 20% | > 70 | > 10^6 fold | 2×10^−9 | ≤ 1 | ≥ 5×10^−7 | > 50 | 2×10^−9 | ≤ 1 | ≥ 5×10^−7 | > 50 |  |  |  |  |
| C=CC1=C(C(=O)O)N2C(=O)[C@@H](NC(=O)/C(=N\O)c3csc(N)n3)[C@H]2SC1 [cefdinir, Cefdinir] |  |  |  |  |  |  |  |  |  |  |  | 0.0528 | 0.6206 | above 90% | 99.68 |
